Source: patent publication US20240207454A1, “NEURO-BEHAVIORAL ASSAY FOR PHYSIOLOGICAL EVALUATION OF WATER-SOLUBLE ANESTHETICS” (Northeastern University, priority 2022, published 2024)
Values joined by “and” are separate entries in the source; they are usually repeats but may differ in a detail not shown here. Equal values may be shown once.

Columns and labels:
[1] = system: Apteronotus leptorhynchus; experiment: Neuro-behavioral assay: locomotor activity and induction of anesthesia; format: in vivo; conditions: for Treatment time until anal fin undulation and opercular movement ceased, including transfer to and from the beaker: 2.5% urethane or 0.02% MS-222 immersion
Procedure: FIG. 30 Locomotor activity inferred from amplitude fluctuations of the EOD. After recording of the baseline EOD for 6 min, the fish was transferred to a 0.02% MS-222 solution in aquarium water for 5 min. After return of the fish to its home tank, the EOD recording continued for 15 min. To determine the locomotor activity index, positive and negative deviations from an arbitrarily set threshold value of the amplitude were determined every 1 sec, and the standard deviation of the absolute values of these amplitude deviations were calculated for 30-sec time windows. […] Recovery of the locomotor activity occurred within some 2 min after the fish was returned to its home tank (filled circles).
(§1) The experimental design is outlined in FIG. 2. To determine the baseline EOD frequency, the fish's EOD was recorded for 30 min. Then, the fish was transferred into a glass beaker containing either 2.5% urethane (Acros Organics, New Jersey, USA) or 0.02% MS-222 (Western Chemical, Washington, USA), each dissolved in water from the fish's isolation tank. As a control, the fish was moved into an identical glass beaker containing aquarium water only. The temperatures of the anesthetic solutions or the aquarium water in the beaker were similar (±1° C.) to the temperature of the water in the fish's isolation tank.
(§2) The fish was left in the anesthetic solution until both anal fin undulation and opercular movement ceased. It was then returned to its isolation tank where recording of the EOD continued for 180 min. For urethane anesthesia, treatment including transfer to and from the beaker took between 4-5 min. MS-222 anesthesia required longer exposure to the anesthetic so that the entire treatment lasted between 9-15 min. Control experiments were designed such that the handling of the fish and the time the fish spent outside its isolation tank were similar to the corresponding anesthesia experiments (urethane control: 5-8 min; MS-222 control: 7-10 min).
To examine the effect of eugenol on EOD frequency and chirping behavior, the following experiments were conducted using 8 fish (FIG. 11): First, the baseline EOD was recorded in the fish's home tank (50 cm×30 cm×30 cm) for 30 min. Then, for the 5-min treatment session, the shelter tube with the fish was transferred to a smaller (experimental) tank (30 cm×20 cm×20 cm) containing either eugenol dissolved in aquarium water at a certain concentration (30 μL/L, 45 μL/L, or 60 μL/L; ‘test condition’) or aquarium water only (‘control condition’). The temperature in the experimental tank was similar to the temperature in the home tank (median difference: ±0.2° C.). Finally, the shelter tube with the fish was returned to the home tank, where recording continued for 180 min. Throughout the 215 min of pre-treatment, treatment, and post-treatment, the recording of the EOD was interrupted only for a few seconds during which the fish was transferred between its home tank and the experimental tank. The order of the four treatment conditions was determined using a randomized complete block design. Each test or control experiment in a given fish was conducted on a different day.
Most of the time, fish in the shelter tube maintained an upright position, with their longitudinal axis parallel to the walls of the tube. Forward and backward swimming occurred frequently and appeared to be mediated primarily by high-frequency undulations of the anal fin. Sporadically, the fish made 180° turns around its vertical axis.
Neuro-Behavioral Assay extended to the monitoring of locomotor activity. The electric organ discharge (EOD) that is recorded as the assayed behavior contains not only information about the frequency and possible modulations of the EOD (‘chirps’) but also about the locomotor activity of the fish. […]

[2] = system: Apteronotus leptorhynchus; experiment: Neuro-behavioral assay: chirps (EOD modulations); format: in vivo; conditions: for Number of chirps during the 30 min immediately following anesthesia (mean) / Number of chirps during the 30 min immediately following anesthesia (median) / Number of chirps during the 30 min immediately following anesthesia (range among fish): 2.5% urethane or 0.02% MS-222, n=8 fish
Source text: Previous research has shown that transient modulations of the EOD may occur, both spontaneously and through stimulation with electric signal mimicking the EOD of a conspecific. These modulations are brief (several tens of milliseconds) and involve frequency increases. They are commonly referred to as ‘chirps.’
To identify chirp instances, the time-frequency data {(Tk, fk)}k=q^q+n^wind, q=1, . . . , M−nwind−1, was considered in a moving time window containing nwind+1 samples. The first and last nmed samples in each window are used to establish the instantaneous base frequency before chirping:
to the data set {(ξp,q, ϕp,q)}p=0^n^wind for each q=1, 2, . . . time window. This curve fitting was carried out over a fixed search range α∈[αmin, αmax] discretized evenly using nα+1 number points. For each q=1, 2, . . . time window, the coefficient of determination Rq,i^2 was computed for each point αi=αmin+i (αmax−αmin)/nα, i=0, . . . , nα of the discretized search range. Then, the fitted curve for each q=1, 2, . . . time window as Φ (ξ; ? ), with
Subsequently, using Algorithm 1, contiguous segments of successive windows are identified within qε and for each segment the time window q associated with the maximum ? value is reported together with the corresponding parameter ? and maximum frequency rise Δfq.
Nonlinear regression is performed on data points within these time windows using the three-parameter model Ψ(ξ; α, Δf, τ)=Δf Φ(ξ−τ; α) with initial parameters α= ? , Δf=Δfq, and τ=0. Finally,
as time instance, ? as maximum frequency rise and dchirp,q=ln(7+4√{square root over (3)})/αq is reported as duration of a chirp for each q reported time window with parameter estimates αq, ? , τq. Here the formula for chirp duration corresponds to the half prominence of Ψ(ξ; αq, ? , τq).
as §1, §2
The method described in Eske et al. (2023) was employed for the detection of chirps. This method assumes that the frequency shape of chirps normalized by the peak frequency rise is described in time by function
where ξ is the time coordinate measured from the chirp's peak frequency and α is an unknown parameter identified by the chirp detection method (FIG. 2). This function closely matches the shape of type-2 chirps, and, though to a lesser extent, the shape of type-1 chirps. […]

[3] = 0.02% MS-222, 5 min exposure (FIG. 30)

For CCOC(N)=O [urethane], the “Treatment time until anal fin undulation and opercular movement ceased, including transfer to and from the beaker” value [1] was 4 to 5 min, the “Number of chirps during the 30 min immediately following anesthesia (mean)” value [2] was 1852 chirps and 1500 chirps and the “Number of chirps during the 30 min immediately following anesthesia (median)” value [2] was 1541 chirps. For the same molecule, the “Number of chirps during the 30 min immediately following anesthesia (range among fish)” value [2] was 568-4434 chirps and the “Time T to which type-2 chirping at higher rates persists after exposure” value ([2]; 2.5% urethane, single recording (FIG. 20)) was about 4600 s.

With C=CCc1ccc(O)c(OC)c1 [eugenol] the “Fish in which anal fin continued undulating throughout the 5-min exposure” value ([1]; 30 μL/L eugenol) was 3 out of 8, the “Time after which body movements ceased (mean)” value ([1]; 30 μL/L eugenol, 8 fish) was 1.8 min and the “Time after which body movements ceased (range)” value ([1]; 30 μL/L eugenol, 8 fish) was 1 to 3 min. For the same molecule, the “Time after which anal fin undulation stopped” value ([1]; 30 μL/L eugenol, the 5 fish in which it stopped) was 1 to 3 min, the “Time to anesthesia (total loss of equilibrium and cessation of any movement, including anal fin undulation)” value ([1]; 45 μL/L and 60 μl/L eugenol) was 1 to 4 min and the “Fish in which anal fin continued undulating throughout the 5-min exposure” value ([1]; 45 μL/L eugenol) was 1 out of 8. For the same molecule, the “Time after which body movements ceased (mean)” value ([1]; 45 μL/L eugenol, 8 fish) was 1.4 min, the “Time after which body movements ceased (range)” value ([1]; 45 μL/L eugenol, 8 fish) was 1 to 2 min and the “Time after which anal fin ceased undulating” value ([1]; 45 μL/L eugenol, the 7 fish in which it ceased) was 1 to 3 min. For the same molecule, the “Time after which body movements ceased (each fish)” value ([1]; 60 μL/L eugenol, 8 fish) was 1 min, the “Difference in increase in the number of chirps (30 min before vs 30 min after exposure): Median” value ([2]; eugenol 30 μL/L vs. Control) was 97.5 and the “Difference in increase in the number of chirps between pairs of eugenol concentrations: Median” value ([2]; eugenol 45 μL/L vs. 30 μL/L) was 8. For the same molecule, the “Difference in increase in the number of chirps (30 min before vs 30 min after exposure): Median” value ([2]; eugenol 45 μL/L vs. Control) was 137, the “Difference in increase in the number of chirps between pairs of eugenol concentrations: Median” value ([2]; eugenol 60 μL/L vs. 30 μL/L) was 60.5 and the “Difference in increase in the number of chirps between pairs of eugenol concentrations: Median” value ([2]; eugenol 60 μL/L vs. 45 μL/L) was 23. The “Difference in increase in the number of chirps (30 min before vs 30 min after exposure): Median” value ([2]; eugenol 60 μL/L vs. Control) was 160.

For CCOC(=O)c1cccc(N)c1 [MS-222, 3-aminobenzoic acid ethyl ester methanesulfonate], the “Time from start of exposure until locomotor activity drops dramatically” value [1, 3] was at most 2 min, the “Time to recovery of locomotor activity after return to home tank” value [1, 3] was at most 2 min and the “Treatment time until anal fin undulation and opercular movement ceased, including transfer to and from the beaker” value [1] was 9 to 15 min. The “Time chirp rates remained elevated after anesthesia” value ([2]; 0.02% MS-222) was at most 3 h, the “Number of chirps during the 30 min immediately following anesthesia (mean)” value [2] was 48 chirps and the “Number of chirps during the 30 min immediately following anesthesia (median)” value [2] was 30 chirps. The “Number of chirps during the 30 min immediately following anesthesia (range among fish)” value [2] was 1-156 chirps.
